Measured values reported in patent US5854407A, “15-hydroxy 6,9-hemiacetal erythromycin compounds” (Takeda Chemical Corporation, priority 1992, dated 1998).
Read-outs that look alike come from different tables or passages of the source.

Assays:
[1] = Metabolite formation and distribution in dogs after i.v. lactobionate of compound (1); assay type: in vivo; details: dog, lactobionate of compound (1) 10 mg/kg, iv
Protocol: (§1) Namely, the present inventors found an active metabolite in vivo which promoted the gastrointestinal motor function (had GMS activity), when compound (1) or (2) of 14-membered ring macrolides having the structural formula shown in Table 1 below were given to the animals. Compound (1) was intravenously given to the dogs, followed by solvent extraction from the livers 30 minutes after administration, chromatography and preparative HPLC to 15 obtain two active metabolites, compounds (3) and (4). The present inventors were able to determine that the chemical structures of these compounds were 15- and 14-hydroxyl derivatives of compound (1), respectively. Compound (2) was treated similarly to obtain corresponding compounds (7) and (8).
(§2) The lactobionate of the compound (1) (10 mg/kg, iv) was injected into the fore-limb of the dog, and the blood, the liver, the bile and the urine were subjected to HP-20 chromatography. After extraction with ethyl acetate, active metabolites were determined. […] The liver was collected 30 minutes after administration, and an extracted concentrated solution thereof was subjected to HP-20 chromatography. The 80% v/v methanol/0.005N HCl fraction was extracted with ethyl acetate, and then, the extract was concentrated to obtain a powder. […]

Gastric Motor of Dogs = test: Effect (GMS activity) on gastric motor of dogs (strain gauge force transducer, gastric antrum, i.v.); assay type: in vivo, dogs (Beagles); details: for ED200: dogs; for GMS activity compared with starting compound: compared with the respective starting compounds (1) and (2); for gastrointestinal motor promoting effect: in vivo test of dogs, in words
Source text: Effect (GMS activity) on Gastric Motor of Dogs was studied.
Beagles having a body weigh of about 10 kg were subjected to laparotomy under pentobarbital anesthesia, and a strain gauge force transducer was attached to the gastric antrum of each of the beagles. The beagles were used for the experiment more than 2 weeks after the operation. A lead wire of the strain gauge force transducer was connected to a recorder through an amplifier and the recorder records gastric contractions. Signals from the amplifier were supplied to a signal processor (NEC Sanei).
Each of the test compounds was dissolved in ethanol, and lactobionic acid (1 mg/mg of test compound) was added thereto, followed by dilution with physiological saline. The resulting solution was intravenously given 15 minutes after termination of the natural interdigestive migrating contractions.
The area of gastric contractions induced by administration of the test compounds was measured by use of the signal processor. Taking the area at the time that the maximum contraction of the interdigestive migrating contractions was kept for 1 minute as 100%, the dosage inducing a contraction area of 200% (ED200 value) was determined from dosage action curves.
The action (GMS activity) of the above-mentioned compounds on the gastric motor of the dogs was measured.
The measurement was carried out in a manner similar to that of Experimental Example 1.

[2] = Physicochemical nature (basicity, fat solubility)
gastrointestinal motor = test: GMS activity of metabolites isolated from dogs; assay type: in vivo; details: metabolites after compound (1), dog 10 mg/kg iv
Protocol: as §1
First, the present inventors examined whether or not metabolites promoting the gastrointestinal motor (having GMS activity) were formed in vivo when the compound (1) or (2), the 6,9-hemiacetal-erythromycin derivative known in the art, was given to the animal.
as §2, with “chromatography.” for “chromatography. The 80% v/v methanol/0.005N HCl fraction was extracted with ethyl acetate, and then, the extract was concentrated to obtain a powder.”

[3] = tested on: gastrointestinal peristaltic movement; details: literature; cited from earlier work
mice = test: Acute toxicity test using mice (intravenous injection); assay type: in vivo; details: 100 mg/kg
[4] = Canis lupus familiaris, iv, Table 3, dose inducing contraction area of 200%, i.v., as lactobionic acid solution, read-out: ED200
[5] = Canis lupus familiaris, iv, Table 4, Experimental Example 2, similar to Experimental Example 1, read-out: ED200

Row | SMILES | ED200 (Gastric Motor of Dogs; [4]) [µg/kg] | basicity and fat solubility [2] | GMS activity compared with starting compound (Gastric Motor of Dogs) | gastrointestinal motor promoting effect (Gastric Motor of Dogs) | further results
1 | CC[C@H]1OC(=O)[C@H](C)[C@@H](O[C@H]2C[C@@](C)(OC)[C@@H](O)[C@H](C)O2)[C@H](C)[C@@H](O[C@@H]2O[C@H](C)C[C@H](N(C)C(C)C)[C@H]2O)[C@@]2(C)CC(C)=C(O2)[C@H](C)[C@@H](O)[C@]1(C)O [Compound (1), reference compound] | 0.9 | – | – | – | presence in blood, liver, bile and urine [1]: largely present in the blood; ED200 (Gastric Motor of Dogs; Table 4, Experimental Example 2, similar to Experimental Example 1): 0.9 µg/kg
2 | CC[C@H]1OC(=O)[C@H](C)[C@@H](O[C@H]2C[C@@](C)(OC)[C@@H](O)[C@H](C)O2)[C@H](C)[C@@H](O[C@@H]2O[C@H](C)C[C@H](N(C)CC)[C@H]2O)[C@@]2(C)CC(C)=C(O2)[C@H](C)[C@@H](O)[C@]1(C)O [Compound (2), reference compound] | 8 | – | – | – | –
3 | CO[C@]1(C)C[C@H](O[C@H]2[C@H](C)[C@@H](O[C@@H]3O[C@H](C)C[C@H](N(C)C(C)C)[C@H]3O)[C@@]3(C)CC(C)=C(O3)[C@H](C)[C@@H](O)[C@](C)(O)[C@@H](CCO)OC(=O)[C@@H]2C)O[C@@H](C)[C@@H]1O [Compound (3), N-demethyl-15-hydroxy-N-isopropyl-8,9-anhydroerythromycin A 6,9-hemiacetal] | 0.5 | basic fat-soluble properties | stronger GMS activity than the respective starting compounds | strong gastrointestinal motor promoting effect | GMS activity of metabolites / fractions (gastrointestinal motor): active
4 | CO[C@]1(C)C[C@H](O[C@H]2[C@H](C)[C@@H](O[C@@H]3O[C@H](C)C[C@H](N(C)C(C)C)[C@H]3O)[C@@]3(C)CC(C)=C(O3)[C@H](C)[C@@H](O)[C@](C)(O)[C@@H](C(C)O)OC(=O)[C@@H]2C)O[C@@H](C)[C@@H]1O (stereo partly shown) [Compound (4), N-demethyl-14-hydroxy-N-isopropyl-8,9-anhydorerythromycin A 6,9-hemiacetal] | 0.4 | basic fat-soluble properties | stronger GMS activity than the respective starting compounds | strong gastrointestinal motor promoting effect | GMS activity of metabolites / fractions (gastrointestinal motor): active
5 | CC1=C2O[C@](C)(C1)[C@H](O[C@@H]1O[C@H](C)C[C@H](N(C)C(C)C)[C@H]1O)[C@@H](C)[C@H](O[C@H]1C[C@@](C)(O)[C@@H](O)[C@H](C)O1)[C@@H](C)C(=O)O[C@H](C(C)O)[C@@](C)(O)[C@H](O)[C@H]2C (stereo partly shown) [Compound (5), 3'-O-demethyl-N-demethyl-14-hydroxy-N-isopropyl-8,9-anhydroerythromycin A 6,9-hemiacetal] | – | – | stronger GMS activity than the starting compound (1) | – | ED200 (Gastric Motor of Dogs; [5]): 0.21 µg/kg
6 | CC[C@H]1OC(=O)[C@H](C)[C@@H](O[C@H]2C[C@@](C)(O)[C@@H](O)[C@H](C)O2)[C@H](C)[C@@H](O[C@@H]2O[C@H](C)C[C@H](N(C)C(C)C)[C@H]2O)[C@@]2(C)CC(C)=C(O2)[C@H](C)[C@@H](O)[C@]1(C)O [Compound (6)] | – | – | stronger GMS activity than the starting compound (1) | – | ED200 (Gastric Motor of Dogs; [5]): 0.26 µg/kg
7 | CCN(C)[C@H]1C[C@@H](C)O[C@@H](O[C@@H]2[C@@H](C)[C@H](O[C@H]3C[C@@](C)(OC)[C@@H](O)[C@H](C)O3)[C@@H](C)C(=O)O[C@H](CCO)[C@@](C)(O)[C@H](O)[C@@H](C)C3=C(C)C[C@@]2(C)O3)[C@@H]1O [Compound (7), N-demethyl-15-hydroxy-N-ethyl-8,9-anhydroerythromycin A 6,9-hemiacetal] | 3.2 | basic fat-soluble properties | stronger GMS activity than the respective starting compounds | strong gastrointestinal motor promoting effect | –
8 | CCN(C)[C@H]1C[C@@H](C)O[C@@H](O[C@@H]2[C@@H](C)[C@H](O[C@H]3C[C@@](C)(OC)[C@@H](O)[C@H](C)O3)[C@@H](C)C(=O)O[C@H](C(C)O)[C@@](C)(O)[C@H](O)[C@@H](C)C3=C(C)C[C@@]2(C)O3)[C@@H]1O (stereo partly shown) [Compound (8), N-demethyl-14-hydroxy-N-ethyl-8,9-anhydroerythromycin A 6,9-hemiacetal] | 1.8 | basic fat-soluble properties | stronger GMS activity than the respective starting compounds | strong gastrointestinal motor promoting effect | –
9 | CC[C@H]1OC(=O)[C@H](C)[C@@H](O[C@H]2C[C@@](C)(OC)[C@@H](O)[C@H](C)O2)[C@H](C)[C@@H](O[C@@H]2O[C@H](C)C[C@H](N(C)C)[C@H]2O)[C@](C)(O)C[C@@H](C)C(=O)[C@H](C)[C@@H](O)[C@]1(C)O [ERM A, erythromycin A] | – | – | – | – | motilin-like action / GMS activity [3]: motilin-like action promoting the gastrointestinal peristaltic movement
10 | CCN(C)[C@H]1C[C@@H](C)O[C@@H](O[C@@H]2[C@@H](C)[C@H](O[C@H]3C[C@@](C)(OC)[C@@H](O)[C@H](C)O3)[C@@H](C)C(=O)O[C@H](C(C)O)[C@@](C)(O)[C@H](O)[C@@H](C)C3=C(C)C[C@@]2(C)O3)[C@@H]1O (stereo partly shown) [lactobionate of the compound (8)] | – | – | – | – | death in acute toxicity test (mice): no case of death was observed
